From patent US11224628B2, “Method for extraction of an agent from a plant source” (Yissum Research Development Company of the Hebrew …, priority 2017, dated 2022)

Test: Self-diffusion NMR (SD-NMR) diffusion coefficients of the components of the AX-loaded medium
Format: physicochemical
Conditions: 0.5 wt % AX-loaded medium
Method: In order to determine the structure of the oil droplets (or micelles) of the medium, self-diffusion NMR analysis was carried out. SD-NMR is able to locate each component within the medium via measurements of its diffusion coefficient.
NMR measurements were performed with a Bruker AVII 500 spectrometer equipped with GREAT 1/10 gradients, a 5 mm BBO and a 5 mm BBI probe, both with a z-gradient coil and with a maximum gradient strength of 0.509 and 0.544 Tm^−1, respectively. Diffusion was measured using an asymmetric bipolar longitudinal eddy-current delay (bpLED) experiment, or an asymmetric bipolar stimulated echo (known as one-shot) experiment with convection compensation and an asymmetry factor of 20%, ramping the strongest gradient from 2% to 95% of maximum strength in 32 steps. The spectrum was processed with the Bruker TOPSPIN software. NMR spectra were recorded at 25±0.2° C. The components were identified by their chemical shift in 1H NMR.

Diffusion coefficient (water content 0 wt %)	Diffusion coefficient (water content 10 wt %)	Diffusion coefficient (water content 20 wt %)	Diffusion coefficient (water content 30 wt %)	Diffusion coefficient (water content 40 wt %)	Diffusion coefficient (water content 50 wt %)	Diffusion coefficient (water content 60 wt %)	Diffusion coefficient (water content 70 wt %)	Diffusion coefficient (water content 80 wt %)	Diffusion coefficient (water content 90 wt %)	Compound
4.5 × 10^−12 m^2/sec	3.5 × 10^−12 m^2/sec	2.9 × 10^−12 m^2/sec	6 × 10^−13 m^2/sec	4 × 10^−13 m^2/sec	9 × 10^−13 m^2/sec	2.2 × 10^−12 m^2/sec	5.3 × 10^−12 m^2/sec	1.05 × 10^−11 m^2/sec	1.91 × 10^−11 m^2/sec	CCCCCCCC/C=C\CCCCCCCC(=O)OCCOCC(OCCO)C1OCC(OCCO)C1OCCO (stereo not shown) [Tween 80, Polysorbate 80]
5.46 × 10^−11 m^2/sec	3.09 × 10^−11 m^2/sec	2.36 × 10^−11 m^2/sec	3.2 × 10^−12 m^2/sec	1.4 × 10^−12 m^2/sec	1.4 × 10^−12 m^2/sec	3.1 × 10^−12 m^2/sec	5.7 × 10^−12 m^2/sec	1.10 × 10^−11 m^2/sec	1.91 × 10^−11 m^2/sec	C=C(C)[C@H]1CC=C(C)CC1 [R-(+)-limonene, R-(+)-Limonene]

Second part, the compound before the results:

Compound	Diffusion coefficient (water content 0 wt %)	Diffusion coefficient (water content 10 wt %)	Diffusion coefficient (water content 20 wt %)	Diffusion coefficient (water content 30 wt %)	Diffusion coefficient (water content 40 wt %)	Diffusion coefficient (water content 50 wt %)	Diffusion coefficient (water content 60 wt %)	Diffusion coefficient (water content 70 wt %)	Diffusion coefficient (water content 80 wt %)	Diffusion coefficient (water content 90 wt %)
CCO [EtOH, Ethanol]	4.13 × 10^−11 m^2/sec	4.66 × 10^−11 m^2/sec	4.78 × 10^−11 m^2/sec	8.67 × 10^−11 m^2/sec	1.2 × 10^−10 m^2/sec	1.7 × 10^−10 m^2/sec	2.33 × 10^−10 m^2/sec	3.32 × 10^−10 m^2/sec	4.67 × 10^−10 m^2/sec	5.89 × 10^−10 m^2/sec
CC(O)CO (stereo not shown) [PG, Propylene glycol]	4.43 × 10^−11 m^2/sec	4.78 × 10^−11 m^2/sec	4.86 × 10^−11 m^2/sec	8.69 × 10^−11 m^2/sec	1.23 × 10^−10 m^2/sec	1.75 × 10^−10 m^2/sec	2.41 × 10^−10 m^2/sec	3.35 × 10^−10 m^2/sec	4.67 × 10^−10 m^2/sec	6.03 × 10^−10 m^2/sec
[2H]O[2H] [Formulation D2O, D2O]		3.1 × 10^−11 m^2/sec	2.84 × 10^−11 m^2/sec	3.2 × 10^−12 m^2/sec	1.3 × 10^−12 m^2/sec	2.69 × 10^−11 m^2/sec	7.96 × 10^−10 m^2/sec	9.1 × 10^−10 m^2/sec	1.16 × 10^−9 m^2/sec	1.48 × 10^−09 m^2/sec
CC1=C(/C=C/C(C)=C/C=C/C(C)=C/C=C/C=C(C)/C=C/C=C(C)/C=C/C2=C(C)C(=O)[C@@H](O)CC2(C)C)C(C)(C)C[C@H](O)C1=O [AX, astaxanthin]	4.7 × 10^−12 m^2/sec	3 × 10^−12 m^2/sec	1.4 × 10^−12 m^2/sec	3 × 10^−13 m^2/sec	3 × 10^−13 m^2/sec	7 × 10^−13 m^2/sec	1.4 × 10^−12 m^2/sec	4.8 × 10^−12 m^2/sec	1.12 × 10^−11 m^2/sec	
